Measured values reported in patent publication US20090221607A1, “Piperazine Derivatives” (M's Science Corporation, priority 2006, published 2009).
Counter-ions that a name gives are not always drawn.

Target: T1, σ1 receptors (Homo sapiens, UniProt Q99720)
T1 construct: endogenous in cells; host or cells: HEK-293 cell membranes
Assay: σ1 receptor binding assay ((+)-[3H]pentazocine displacement, HEK-293 cell membranes)
Conditions: 10 nM (+)-[3H]-pentazocine, 120 min at 37° C.
Protocol: Sigma-1 (σ1) and sigma-2 (σ2) receptor binding assays are carried out in membranes from HEK-293 (Human Embryonic Kidney) cells.
Confluent HEK-293 cells are harvested in PBS/5 mM EDTA. They are centrifuged at 2000 rpm for 5 min and then washed two times in PBS. Cells are homogenized in 20 mM Tris-HCL (pH=7.5) containing 5 mM EDTA, 0.5 mM PMSF and 0.5 μg/mL leupeptin using a Dounce homogenizer and sonicated for 5 minutes.
Nuclear debris and intact cells are removed by centrifugation at 3000 rpm for 10 minutes at 4° C. The supernatant is centrifuged at 12000 rpm for 30 minutes and the resulting pellet is resuspended in 25 mM Tris-HCL (pH=7.5), 25 mM Mg2Cl, 10% sucrose containing 0.5 mM PMSF, 2 mM AEBSF, 1 mM EDTA, 130 μM bestatin, 14 μM E-64, 1 μM leupeptin and […] aprotinin.
Proteins are determined using the Bio Rad Protein Assay Dye Reagent and the membranes are aliquoted and frozen at −80° C. […]
Total binding is determined by incubating 50 μg of HEK-293 cell membranes with 10 nM (+)-[^3H]-pentazocine (Perkin-Elmer, 35 Ci/mmol) and assay buffer (50 mM Tris-HCl, pH=8.3) in a total volume of 200 μl. Non specific binding is determined in the presence of 10 μM unlabeled pentazocine. […] The filters are washed three times and the membrane-bound radioactivity is determined in a Microbeta scintillation counter. […]
Specific binding is determined by subtraction of non specific binding from total binding. […]

T1 sequence (Q99720 whole entry): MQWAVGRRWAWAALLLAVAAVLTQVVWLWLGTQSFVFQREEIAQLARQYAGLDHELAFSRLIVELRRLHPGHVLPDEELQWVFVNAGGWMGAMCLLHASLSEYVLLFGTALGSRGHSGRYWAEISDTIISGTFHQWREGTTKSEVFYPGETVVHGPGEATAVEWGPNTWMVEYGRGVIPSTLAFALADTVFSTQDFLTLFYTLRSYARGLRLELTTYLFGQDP

IC50 [nM]	Structure (SMILES)
< 700	Fc1ccc(OCCN2CCN(CCOc3ccc(F)cc3)CC2)cc1 [1,4-bis-[2-(4-fluorophenoxy)ethyl]piperazine]
< 700	Fc1ccccc1OCCN1CCN(CCOc2ccccc2F)CC1 [Example 1, 1,4-Bis-[2-(2-fluorophenoxy)ethyl]piperazine dihydrochloride]
